The text below walks through data of patent publication US20150104868A1, “Methods of Maintaining and Improving Biological Cell Function and Activity” (GARGILL INCORPORATED, priority 2012, published 2015).

Entries after “also recorded” stand apart in the source; their conditions may differ. Where two headings read alike, the source gives them in different places.

The test system of series [1] is Mouse intestine (entero-endocrine) STC-1 cells. The procedure:
Appropriate blanks, positive controls, and standards were also included.
The lactate dehydrogenase (LDH) leakage from cells was analyzed in the supernatants as a marker for cytotoxic cell death.

Series [2] relates to HUVEC cells. As to the kind of experiment: Oxidative damage: protein carbonyls in HUVEC. In kind it is cell-based, human. The following applies: HG 30 mM glucose 24 h, with or without 5 mM ERT/MAN. The method, then:
The prepared cells were seeded in 6 well plates and T75 flasks and grown until 80% confluence. The medium was removed, and the cells were washed with Hank's Balanced Salt Solution (HBSS). […] The vehicle solution is the solvent for the test compounds, in this case being the medium without supplements. […] The cells described above were also incubated for 24 hours with a 7 mM, normal glucose (NG) solution or in some instances, with a 15 mM, intermediary glucose (IG) solution. See, for example, FIG. 6. Subsequently, the cells were incubated for 24 hours. The same protocol was used for incubation with Nε-(carboxymethyl)lysine (CML, final concentration 1 micromolar) and 1,3-morpholino sidnonimine (SIN-1, final concentration 0.5 mM). […] Hyperglycemia is strongly associated with oxidative stress, an imbalance between the formation of reactive oxygen species and the present antioxidants. Excess reactive oxygen species react with critical cellular targets, viz. membrane lipids, proteins and (deoxy)ribonucleic acids. […] Accordingly, one of the targeted assays included studying a comparison of HG to HGERT conditions, where the oxidative damage was evaluated showing that the protein carbonyls decreased from 6.55 nM/mg protein with HG to 3.77 with […]=0.089). Protein carbonyls are end products of reactions between proteins and reactive oxygen species (ROS), formed during oxidative stress. […]

The test system of series [3] is HUVEC cells. In words: HUVEC cell viability assay (trypan blue, percentage of dead cells). The settings on record: ERT/MAN 5 mM 1 h before, SIN-1 0.5 mM, CML 1 micromolar. In kind it is cell-based, human. The method, then: A HUVEC cell line (CRL-1730) was obtained from American Type Culture Collection (ATCC) of Manassas, Va. […] The prepared cells were maintained in collagen coated T75 flasks (Greiner Bio-one) at 37° C. in a 5% CO2 atmosphere. The prepared cells were subjected to various stressors. Stressors, for purposes of the examples, include conditions of stress caused by glucose directly or indirectly through the formation or elevation of other substances that cause stress. Diabetic stressors include high glucose (HG; 30 mM, 24 h), TNFα: pro-inflammatory agent, Nε carboxymethyllysine: advanced glycation end (AGE) product, and SIN-1: peroxynitrite generator. Prepared cells were also exposed to normal glucose (NG; 7 mM, 24 h) as a control. The prepared cells were seeded in 6 well plates and T75 flasks and grown until 80% confluence. The medium was removed, and the cells were washed with Hank's Balanced Salt Solution (HBSS). […] The vehicle solution is the solvent for the test compounds, in this case being the medium without supplements. […] The cells described above were also incubated for 24 hours with a 7 mM, normal glucose (NG) solution or in some instances, with a 15 mM, intermediary glucose (IG) solution. See, for example, FIG. 6. Subsequently, the cells were incubated for 24 hours. The same protocol was used for incubation with Nε-(carboxymethyl)lysine (CML, final concentration 1 micromolar) and 1,3-morpholino sidnonimine (SIN-1, final concentration 0.5 mM). […] In a cell viability assay, fresh, untreated HUVEC cells were grown in 6 well plates until 80% confluence. Subsequently, the incubation medium was removed and the cells were washed with HBSS and harvested with trypsin. All cell material, including the medium and the HBSS wash, was collected and centrifuged for 5 minutes at 500×g. […] The number of viable (white) and dead (blue) cells were counted in 25 squares, and the count was repeated an additional two times for each sample, for a total of three counts per sample. […] The percentage of dead cells was then calculated with the formula: (blue cells/(blue cells+white cells))*100.

`OC[C@H]1O[C@@](CO)(O[C@H]2O[C@H](CO)[C@@H](O)[C@H](O)[C@H]2O)[C@@H](O)[C@@H]1O` [sucrose]: the “cell death (leakage of lactate dehydrogenase)” value (“cell death” below) in series [1] is listed as “cell death was higher”.
In the case of `OC[C@@H](O)[C@@H](O)[C@H](O)[C@H](O)CO` [MAN, (2R,3R,4R,5R)-hexaan-1,2,3,4,5,6-hexol, reference compound], the protein carbonyls entry in series [2] is listed as “did not reduce protein carbonyls”.
Regarding `[NH-]c1c[n+](N2CCOCC2)no1` [SIN-1, 3-morpholinosidnonimine], the “percentage of dead cells (Average)” value is 12.59% in series [3] (HG 30 mM glucose 24 h, listed as SIN); “significant increase in the amount of dead cells; also recorded: increased the number of dead cells” in series [3] (NG 7 mM glucose 24 h); 12.29% in series [3] (NG 7 mM glucose 24 h, listed as SIN).
`O=C(CO)[C@@H](O)[C@H](O)[C@H](O)CO[C@H]1O[C@H](CO)[C@@H](O)[C@H](O)[C@H]1O` [6-O-α-D-glucopyranosyl-D-fructose]: in series [1], the “cell death” value is given as “cell death was higher”.
For the compound `O=C(CO)[C@@H](O)[C@H](O)[C@H](O)CO` [fructose], in series [1] (STC-1 cells, 10% w/v, 2 hours at 37° C.), the “cell death” value is reported as “cell death was higher”.
